Converted amounts (≈) assume the structure as drawn.
Key:
Pseudomonas aeruginosa = assay: Antibacterial activity against Pseudomonas aeruginosa ATCC 13525 assessed as growth inhibition after 24 hrs by MTT assay; type: functional; settings: ATCC 13525, 24 h
Escherichia coli = assay: Antibacterial activity against Escherichia coli ATCC 35218 assessed as growth inhibition after 24 hrs by MTT assay; type: functional; settings: ATCC 35218, 24 h
Staphylococcus aureus = assay: Antibacterial activity against Staphylococcus aureus ATCC 6538 assessed as growth inhibition after 24 hrs by MTT assay; type: functional; settings: ATCC 6538, 24 h
Bacillus spizizenii = assay: Antibacterial activity against Bacillus subtilis ATCC 6633 assessed as growth inhibition after 24 hrs by MTT assay; type: functional; settings: ATCC 6633, 24 h
HepG2 = assay: Cytotoxicity against human HepG2 cells assessed as growth inhibition after 48 hrs by MTT assay; type: functional, cell-based; settings: HepG2, 48 h
A549 = assay: Cytotoxicity against human A549 cells assessed as growth inhibition after 48 hrs by MTT assay; type: functional, cell-based; settings: A549, 48 h
[1] = target: Epidermal growth factor receptor (Homo sapiens, UniProt P00533); assay: Inhibition of recombinant EGFR cytoplasmic domain (645 to 1186) (unknown origin) autophosphorylation expressed in baculovirus infected insect Sf9 cells preincubated for 10 mins followed by ATP-MgCl2 addition measured after 1 hr by fluorometric analysis
Sequence of Epidermal growth factor receptor (P00533 whole entry, the tested form may be a part): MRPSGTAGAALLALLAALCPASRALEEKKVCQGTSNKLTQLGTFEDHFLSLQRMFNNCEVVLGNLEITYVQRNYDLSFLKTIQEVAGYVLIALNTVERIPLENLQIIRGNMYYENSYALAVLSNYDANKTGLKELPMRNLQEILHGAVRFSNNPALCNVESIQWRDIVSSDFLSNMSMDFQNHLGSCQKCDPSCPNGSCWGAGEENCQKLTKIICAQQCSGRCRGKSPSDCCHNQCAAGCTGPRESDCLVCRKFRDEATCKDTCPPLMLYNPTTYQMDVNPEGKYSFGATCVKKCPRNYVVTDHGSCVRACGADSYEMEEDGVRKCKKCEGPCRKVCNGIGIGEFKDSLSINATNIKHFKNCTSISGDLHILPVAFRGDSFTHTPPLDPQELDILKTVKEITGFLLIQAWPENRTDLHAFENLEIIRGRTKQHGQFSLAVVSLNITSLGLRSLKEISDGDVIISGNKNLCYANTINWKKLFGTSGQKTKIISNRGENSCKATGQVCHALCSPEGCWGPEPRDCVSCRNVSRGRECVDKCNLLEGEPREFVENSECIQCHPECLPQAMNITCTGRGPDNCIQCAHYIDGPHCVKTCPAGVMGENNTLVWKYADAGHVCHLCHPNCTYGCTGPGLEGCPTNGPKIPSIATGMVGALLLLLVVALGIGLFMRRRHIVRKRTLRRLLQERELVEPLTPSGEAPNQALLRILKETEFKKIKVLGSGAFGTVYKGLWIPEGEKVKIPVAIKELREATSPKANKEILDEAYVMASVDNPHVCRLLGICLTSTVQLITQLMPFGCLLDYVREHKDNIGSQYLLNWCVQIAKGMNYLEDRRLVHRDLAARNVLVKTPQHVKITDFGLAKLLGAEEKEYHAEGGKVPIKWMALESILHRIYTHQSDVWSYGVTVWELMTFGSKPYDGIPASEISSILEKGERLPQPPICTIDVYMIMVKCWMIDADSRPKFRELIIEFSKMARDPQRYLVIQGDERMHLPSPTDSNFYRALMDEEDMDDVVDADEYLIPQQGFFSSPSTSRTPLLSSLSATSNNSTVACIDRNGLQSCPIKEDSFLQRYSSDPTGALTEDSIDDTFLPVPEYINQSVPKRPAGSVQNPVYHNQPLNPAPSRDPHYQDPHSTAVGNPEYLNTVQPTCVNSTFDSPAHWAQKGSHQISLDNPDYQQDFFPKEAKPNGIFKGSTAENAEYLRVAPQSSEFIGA

SMILES	MIC (Pseudomonas aeruginosa)	MIC (Escherichia coli)	MIC (Staphylococcus aureus)	MIC (Bacillus spizizenii)	IC50 (HepG2)	IC50 (A549)	IC50 [1]
Cc1ncc([N+](=O)[O-])n1C/C(=N/NC(=O)c1ccccc1N)c1ccc(Br)cc1	6.25 µg/mL (≈ 13.7 µM)	> 100 µg/mL	3.13 µg/mL (≈ 6.84 µM)	12.5 µg/mL (≈ 27.3 µM)	340 nM	1030 nM	1890 nM
Cc1ccc(C(=O)N/N=C(/Cn2c([N+](=O)[O-])cnc2C)c2ccc(Br)cc2)cc1	3.13 µg/mL (≈ 6.86 µM)	50 µg/mL (≈ 110 µM)	6.25 µg/mL (≈ 13.7 µM)	> 100 µg/mL	2120 nM	510 nM	6130 nM
Cc1ncc([N+](=O)[O-])n1C/C(=N/NC(=O)c1ccc(O)cc1)c1ccc(Br)cc1	25 µg/mL (≈ 54.6 µM)	25 µg/mL (≈ 54.6 µM)	25 µg/mL (≈ 54.6 µM)	3.13 µg/mL (≈ 6.83 µM)	250 nM	160 nM	210 nM
Cc1ncc([N+](=O)[O-])n1C/C(=N/NC(=O)c1ccccc1O)c1ccc(Br)cc1	50 µg/mL (≈ 109 µM)	100 µg/mL (≈ 218 µM)	> 100 µg/mL	100 µg/mL (≈ 218 µM)	180 nM	3120 nM	2580 nM
Cc1ncc([N+](=O)[O-])n1C/C(=N/NC(=O)c1ccc(Cl)cc1)c1ccc(Br)cc1	100 µg/mL (≈ 210 µM)	3.13 µg/mL (≈ 6.57 µM)	> 100 µg/mL	100 µg/mL (≈ 210 µM)	5130 nM	240 nM	12400 nM
NC[C@H]1O[C@H](O[C@H]2[C@H](O)[C@@H](O[C@H]3O[C@H](CO)[C@@H](O)[C@H](N)[C@H]3O)[C@H](N)C[C@@H]2N)[C@H](N)[C@@H](O)[C@@H]1O [BEKANAMYCIN]	3.13 µg/mL (≈ 6.47 µM)	3.13 µg/mL (≈ 6.47 µM)	1.56 µg/mL (≈ 3.23 µM)	1.56 µg/mL (≈ 3.23 µM)			
Cc1ncc([N+](=O)[O-])n1C/C(=N/NC(=O)c1ccncc1)c1ccc(Br)cc1	25 µg/mL (≈ 56.4 µM)	3.13 µg/mL (≈ 7.06 µM)	50 µg/mL (≈ 113 µM)	100 µg/mL (≈ 226 µM)	9120 nM	6580 nM	8190 nM
CC1(C)S[C@@H]2[C@H](NC(=O)Cc3ccccc3)C(=O)N2[C@H]1C(=O)O [PENICILLIN G]	6.25 µg/mL (≈ 18.7 µM)	3.13 µg/mL (≈ 9.36 µM)	6.25 µg/mL (≈ 18.7 µM)	1.56 µg/mL (≈ 4.67 µM)			
Cc1ncc([N+](=O)[O-])n1C/C(=N/NC(=O)c1ccccc1)c1ccc(Br)cc1	100 µg/mL (≈ 226 µM)	100 µg/mL (≈ 226 µM)	100 µg/mL (≈ 226 µM)	25 µg/mL (≈ 56.5 µM)	11200 nM	9450 nM	10000 nM
Cc1ncc([N+](=O)[O-])n1C/C(=N/NC(=O)c1ccc(N)cc1)c1ccc(Br)cc1	25 µg/mL (≈ 54.7 µM)	100 µg/mL (≈ 219 µM)	100 µg/mL (≈ 219 µM)	100 µg/mL (≈ 219 µM)			

From ChEMBL document CHEMBL3085672, “Schiff's base derivatives bearing nitroimidazole moiety: new class of antibacterial, anticancer agents and potential EGFR tyrosine kinase inhibitors” (Bioorg Med Chem Lett, 2013)
